Entries after “also recorded” stand apart in the source; their conditions may differ.
Test system: polyoma virus transformed BHK21/c13 cells, line S100T1
Test: Collocation inhibition test: clonal growth in sparsely and densely seeded areas of a cell density gradient of S100T1 cells in soft agar (Exp 13, 17, 19-26);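 further: soft agar cultures in 24-well plates with a cell density gradient in the top layer, compounds applied from DMSO stocks, clonal growth scored in sparse versus dense areas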;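 on Clonal growth, H high density area of cell gradient, High: grades rise with clonal growth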;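 on Clonal growth, H high density area of cell gradient, Low: grades rise with clonal growth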;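 on Clonal growth, H high density area of cell gradient, Medium: grades rise with clonal growth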;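 on Clonal growth, L low density area of cell gradient, High: grades rise with clonal growth and minus or plus-minus means none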;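 on Clonal growth, L low density area of cell gradient, Low: grades rise with clonal growth and minus or plus-minus means none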;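 on Clonal growth, L low density area of cell gradient, Medium: grades rise with clonal growth and minus or plus-minus means none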
Details: for Clonal growth, H: high density area of cell gradient, High / Clonal growth, L: low density area of cell gradient, High / Clonal growth, H: high density area of cell gradient, Low / Clonal growth, L: low density area of cell gradient, Low / Clonal growth, H: high density area of cell gradient, Medium / Clonal growth, L: low density area of cell gradient, Medium: 4-OH-OPB analogues, S100T1 in soft agar; for Clonal inhibition by 4-OH-OPB analogues, summary of Exp 22-25: sparsely seeded areas while densely seeded areas of the same culture showed significant growth; for Effect on clonal growth, high dose: 172800 S100T1 cells/well; for Resulting clonal growth of treated cultures: Experiment 26, read after 24 hours; for Clonal growth, H high density area of cell gradient, High / Clonal growth, L low density area of cell gradient, High / Clonal growth, H high density area of cell gradient, Low / Clonal growth, L low density area of cell gradient, Low / Clonal growth, H high density area of cell gradient, Medium / Clonal growth, L low density area of cell gradient, Medium / Effect on cell cloning in soft agar: preliminary results; for Clonal growth, H high density area of cell gradient, High / Clonal growth, L low density area of cell gradient, High / Clonal growth, H high density area of cell gradient, Low / Clonal growth, L low density area of cell gradient, Low / Clonal growth, H high density area of cell gradient, Medium / Clonal growth, L low density area of cell gradient, Medium: Exp 13-18, 21-26; for Effect on cell cloning in soft agar: in words; for Clonal growth after 48 hours incubation: Exp 19
[1] = Experiment 25, H: area with high cell density, High concentration, after 48 hours incubation
[2] = Experiment 25, H: area with high cell density, Low concentration, after 48 hours incubation
[3] = Experiment 25, H: area with high cell density, Medium concentration, after 48 hours incubation
[4] = Experiment 25, L: area with low cell density, High concentration, after 48 hours incubation
[5] = Experiment 25, L: area with low cell density, Low concentration, after 48 hours incubation
[6] = Experiment 25, L: area with low cell density, Medium concentration, after 48 hours incubation
[7] = Summary Table 3 of analogue tests (experiments 22-25), H (high cell density), Low concentration
[8] = Summary Table 3 of analogue tests (experiments 22-25), H (high cell density), Medium concentration
[9] = Summary Table 3 of analogue tests (experiments 22-25), L (low cell density), High concentration
[10] = Summary Table 3 of analogue tests (experiments 22-25), L (low cell density), Low concentration
[11] = Summary Table 3 of analogue tests (experiments 22-25), L (low cell density), Medium concentration
[12] = H: area with high cell density, High concentration
[13] = H: area with high cell density, Low concentration
[14] = H: area with high cell density, Medium concentration
[15] = L: area with low cell density, High concentration
[16] = L: area with low cell density, Low concentration
[17] = L: area with low cell density, Medium concentration
[18] = high concentration, H: high cell density part of the gradient
[19] = low concentration (exact conc. only in figure), H: high cell density part of the gradient
[20] = medium concentration, H: high cell density part of the gradient

Compound	Clonal growth [2]	Clonal growth [3]	Clonal growth [4]	Clonal growth [5]	Clonal growth [6]	Resulting clonal growth of treated cultures [12]	Resulting clonal growth of treated cultures [13]	Resulting clonal growth of treated cultures [14]	Resulting clonal growth of treated cultures [15]	Resulting clonal growth of treated cultures [16]	Resulting clonal growth of treated cultures [17]	Clonal growth, H high density area of cell gradient, High (high concentration)	Clonal growth, L low density area of cell gradient, High (high concentration)	Clonal growth, H high density area of cell gradient, Low (low concentration)	Clonal growth, L low density area of cell gradient, Low (low concentration)	Clonal growth, H high density area of cell gradient, Medium (medium concentration)	Clonal growth, L low density area of cell gradient, Medium (medium concentration)	Effect on cell cloning in soft agar	other results
CCCCC1(O)C(=O)N(c2ccccc2)N(c2ccccc2)C1=O [#11, 4-butyl-4-hydoxy-1,2-diphenyl-3,5-pyrazolidnedione]	++	++	++	++	++														Clonal growth, H: high density area of cell gradient, High (high concentration): ++(+); Clonal growth, L: low density area of cell gradient, High (high concentration): ++; Clonal growth, H: high density area of cell gradient, Low (low concentration): ++; Clonal growth, L: low density area of cell gradient, Low (low concentration): ++; Clonal growth, H: high density area of cell gradient, Medium (medium concentration): ++; Clonal growth, L: low density area of cell gradient, Medium (medium concentration): ++; Effect on clonal growth (Exp 25, 48 hours incubation): did not show any growth inhibition; also recorded: high concentration might stimulate growth in densely seeded areas; Clonal growth [1]: ++(+); Clonal growth (Summary Table 3 of analogue tests (experiments 22-25), H (high cell density), High concentration): ++(+); Clonal growth [7]: ++; Clonal growth [8]: ++; Clonal growth [9]: ++; Clonal growth [10]: ++; Clonal growth [11]: ++; Clonal inhibition by 4-OH-OPB analogues, summary of Exp 22-25: possible stimulation at high concentration
c1ccc2c(c1)cc1ccc3cccc4ccc2c1c34 [Benzo(a)pyrene, reference compound]						++	++	++	+++	++	++	++	+++	++	++	++	++	Increased clonal growth at low density	Effect on clonal growth, high dose (Exp 26): increased clonability
Cn1cnc([N+](=O)[O-])c1Sc1ncnc2nc[nH]c12 [Azathioprin, reference compound]	++	++	++	++	++							++	++	++	++	++	++	No effect	Effect on clonal growth (Exp 25, 48 hours incubation): no clonal inhibition or stimulation; Clonal growth [1]: ++
O=P1(N(CCCl)CCCl)NCCCO1 (stereo not shown) [Cycloph. amide]																			Clonal growth after 48 hours incubation [18]: ++; Clonal growth after 48 hours incubation [19]: ++(+); Clonal growth after 48 hours incubation [20]: ++(+)
O=c1[nH]cc(F)c(=O)[nH]1 [Fluorouracil, reference compound]												++	+	++	+	++	+	Rel. moderate inhibition of clonal growth	Effect on clonal growth and toxicity (Exp 21, 117000 S100T1 cells/well): relatively moderate inhibition of clonal growth and low toxicity independent of dosage; Clonal growth (Exp 21, 117000 cells per well, Low concentration (see figure), H: area with high cell density): ++; Clonal growth (Exp 21, High concentration, H: area with high cell density): ++; Clonal growth (Exp 21, High concentration, L: area with low cell density): +; Clonal growth (Exp 21, Low concentration, L: area with low cell density): +; Clonal growth (Exp 21, Medium concentration, H: area with high cell density): ++; Clonal growth (Exp 21, Medium concentration, L: area with low cell density): +
CC1=C(CC(=O)O)c2cc(F)ccc2/C1=C\c1ccc([S+](C)[O-])cc1 (stereo not shown) [Sulindac, reference compound]						++	++(+)	++	+	+++	++	++	+	++(+)	+++	++	++	Possible clonal stimulation at low	Effect on clonal growth of sparsely seeded cells, low dose (Exp 26): clone-inducing effect; Effect on clonal growth, high dose (Exp 26): weak anti-cloning effect on sparsely seeded cells; also recorded: abrogated this effect. It is considered logic
CN(C)c1nc(N(C)C)nc(N(C)C)n1 [Altretamine, reference compound]						++	++	++	++	++	++	++	++	++	++	++	++	No effect	Effect on clonal growth (Exp 26): No effect on cell growth was observed; also recorded: carcinoma in mice. Altretamine had no effect
4-hydroxy-4-aldehyd-1,2-diphenyl-pyrazolidinedione [#10]	++	++	−	++	−														Clonal growth, H: high density area of cell gradient, High (high concentration): ((+)); Clonal growth, L: low density area of cell gradient, High (high concentration): −; Clonal growth, H: high density area of cell gradient, Low (low concentration): ++; Clonal growth, L: low density area of cell gradient, Low (low concentration): ++; Clonal growth, H: high density area of cell gradient, Medium (medium concentration): ++; Clonal growth, L: low density area of cell gradient, Medium (medium concentration): −; Concentration inhibiting clonal growth of sparsely seeded cells without affecting densely seeded areas (Exp 25, medium concentration, 180000 S100T1 cells/well): about 50 μM; Clonal growth [7]: ++; Clonal growth [8]: ++; Clonal growth [9]: −; Clonal growth [10]: ++; Clonal growth [11]: −; Clonal inhibition by 4-OH-OPB analogues, summary of Exp 22-25 (listed as # 10): complete inhibition of growth in sparsely seeded areas
COc1c(C)c2c(c(O)c1C/C=C(\C)CCC(=O)O)C(=O)OC2 [Mycophenolic ac]																			Clonal growth after 48 hours incubation [18]: (+); Clonal growth after 48 hours incubation (high concentration, L: low cell density part of the gradient): (+); Clonal growth after 48 hours incubation [19]: (+); Clonal growth after 48 hours incubation (low concentration, L: low cell density part of the gradient): (+); Clonal growth after 48 hours incubation [20]: (+); Clonal growth after 48 hours incubation (medium concentration, L: low cell density part of the gradient): (+)

— patent US20060121449A1, “Method for selection of compounds which inhibit clonal cell growth and use thereof” (priority 2002, published 2006)
